Experimental data: ChEMBL document CHEMBL1909046, “DrugMatrix in vitro pharmacology data”

Columns and labels:
[1] = target: Beta-1 adrenergic receptor (Homo sapiens, UniProt P08588); test: DRUGMATRIX: Adrenergic beta1 radioligand binding (ligand: [125I] Cyanopindolol); assay type: cell membranes, CHO-K1, Membrane; settings: cho-k1; Not Active = under 50% inhibition at 10 µM
[2] = target: Aldo-keto reductase family 1 member B1 (Rattus norvegicus, UniProt P07943); test: biochemical; assay type: tissue-based, Lens of camera-type eye;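 also: inhibition of aldose reductase enzyme activity, measured with DL-glyceraldehyde as the substrate; in other assays of this panel Not Active means under 50% inhibition at 10 µM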
[3] = target: T1, Cholecystokinin receptor type A (Homo sapiens, UniProt P32238); assay type: cell membranes, Membrane; settings: 1321-n1; also: in other assays of this panel Not Active means under 50% inhibition at 10 µM
T1 sequence (P32238 whole entry): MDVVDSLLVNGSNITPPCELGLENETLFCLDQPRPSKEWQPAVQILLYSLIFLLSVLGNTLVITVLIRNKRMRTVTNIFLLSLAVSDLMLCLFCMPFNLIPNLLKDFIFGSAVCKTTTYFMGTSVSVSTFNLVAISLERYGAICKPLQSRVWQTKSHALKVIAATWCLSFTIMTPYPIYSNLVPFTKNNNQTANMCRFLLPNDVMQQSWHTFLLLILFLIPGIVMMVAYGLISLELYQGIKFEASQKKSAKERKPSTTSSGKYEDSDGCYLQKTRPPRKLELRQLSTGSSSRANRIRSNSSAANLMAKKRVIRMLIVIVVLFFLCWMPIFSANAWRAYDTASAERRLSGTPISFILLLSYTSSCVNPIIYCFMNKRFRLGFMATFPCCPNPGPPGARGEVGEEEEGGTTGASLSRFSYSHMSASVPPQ

[4] = DRUGMATRIX: GABAA, Muscimol, Central radioligand binding (ligand: [3H] Muscimol); assay type: cell membranes, Rattus norvegicus, Wistar, Brain, Membrane; settings: Not Active = under 50% inhibition at 10 µM
[5] = DRUGMATRIX: Glutamate, NMDA, Agonism radioligand binding (ligand: [3H] CGP-39653); assay type: cell membranes, Rattus norvegicus, Wistar, Cerebral cortex, Membrane; settings: Not Active = under 50% inhibition at 10 µM
[6] = DRUGMATRIX: Interleukin IL-1 radioligand binding (ligand: [125I] interleukin 1beta); assay type: cell membranes, Membrane; settings: nih3t3; Not Active = under 50% inhibition at 10 µM
[7] = target: Protein phosphatase 3 catalytic subunit alpha (Homo sapiens, UniProt Q08209); parameters: species or system Escherichia coli;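 also: inhibition of calcineurin (PP2B) enzyme activity, measured with DiFMUP as the substrate; in other assays of this panel Not Active means under 50% inhibition at 10 µM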
Acetylcholinesterase = Acetylcholinesterase (Homo sapiens, UniProt P22303); test: DRUGMATRIX: Acetylcholinesterase enzyme inhibition (substrate: acetylthiocholine); assay type: cell-based, HEK293; settings: hek293; Not Active = under 50% inhibition at 10 µM
Sequence of Acetylcholinesterase (P22303 whole entry): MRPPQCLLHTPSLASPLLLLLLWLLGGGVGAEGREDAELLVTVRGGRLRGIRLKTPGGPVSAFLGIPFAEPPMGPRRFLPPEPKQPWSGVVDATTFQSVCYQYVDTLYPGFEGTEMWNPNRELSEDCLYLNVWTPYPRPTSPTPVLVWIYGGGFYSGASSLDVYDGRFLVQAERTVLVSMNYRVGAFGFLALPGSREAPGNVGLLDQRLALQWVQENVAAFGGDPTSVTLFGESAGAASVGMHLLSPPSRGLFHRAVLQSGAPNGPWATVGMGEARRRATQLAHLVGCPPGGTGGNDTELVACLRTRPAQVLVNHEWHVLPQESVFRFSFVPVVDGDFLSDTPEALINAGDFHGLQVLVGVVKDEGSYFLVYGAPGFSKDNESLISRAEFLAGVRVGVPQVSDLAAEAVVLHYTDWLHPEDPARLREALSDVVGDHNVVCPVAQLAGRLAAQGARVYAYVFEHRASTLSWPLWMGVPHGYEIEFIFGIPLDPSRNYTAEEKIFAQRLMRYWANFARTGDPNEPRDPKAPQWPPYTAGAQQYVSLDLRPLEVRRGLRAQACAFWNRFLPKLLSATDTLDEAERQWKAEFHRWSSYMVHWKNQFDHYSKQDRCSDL

Sequence of Beta-1 adrenergic receptor (P08588 whole entry): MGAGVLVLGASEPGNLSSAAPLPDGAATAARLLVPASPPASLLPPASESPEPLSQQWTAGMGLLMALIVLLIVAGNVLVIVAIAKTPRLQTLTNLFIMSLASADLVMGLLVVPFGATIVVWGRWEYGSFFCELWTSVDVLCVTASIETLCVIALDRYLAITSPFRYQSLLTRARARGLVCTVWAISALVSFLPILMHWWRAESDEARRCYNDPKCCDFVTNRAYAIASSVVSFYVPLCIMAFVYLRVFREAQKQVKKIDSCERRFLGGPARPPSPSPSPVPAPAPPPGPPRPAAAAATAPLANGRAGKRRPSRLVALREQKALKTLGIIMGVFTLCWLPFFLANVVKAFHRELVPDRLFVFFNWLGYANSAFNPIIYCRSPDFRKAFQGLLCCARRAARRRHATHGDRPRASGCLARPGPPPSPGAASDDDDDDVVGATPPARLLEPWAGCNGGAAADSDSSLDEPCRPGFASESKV

C[C@H]1COc2c(N3CCN(C)CC3)c(F)cc3c(=O)c(C(=O)O)cn1c23.C[C@H]1COc2c(N3CCN(C)CC3)c(F)cc3c(=O)c(C(=O)O)cn1c23.O [LEVOFLOXACIN]
Not Active: IC50 [1] | IC50 [2] | IC50 [3] | IC50 [4] | Ki [4] | IC50 [5] | Ki [5] | IC50 [6] | Ki [6] | IC50 [7] | IC50 (Acetylcholinesterase)

CCn1cc(C(=O)O)c(=O)c2cc(F)c(N3CCNC(C)C3)c(F)c21 (centres undefined) [LOMEFLOXACIN]
Not Active: IC50 [1] | IC50 [2] | IC50 [3] | IC50 [4] | Ki [4] | IC50 [5] | Ki [5] | IC50 [6] | Ki [6] | IC50 [7] | IC50 (Acetylcholinesterase)

Cc1cccc(C)c1NC(=O)C1CCCCN1C (centres undefined) [MEPIVACAINE]
Not Active: IC50 [1] | IC50 [2] | IC50 [3] | IC50 [4] | Ki [4] | IC50 [5] | Ki [5] | IC50 [6] | Ki [6] | IC50 [7] | IC50 (Acetylcholinesterase)

CN(C)C(=N)NC(=N)N [METFORMIN]
Not Active: IC50 [1] | IC50 [2] | IC50 [3] | IC50 [4] | Ki [4] | IC50 [5] | Ki [5] | IC50 [6] | Ki [6] | IC50 [7] | IC50 (Acetylcholinesterase)

CC(C)(C)NCC(O)COc1cccc2c1CC(O)C(O)C2 (centres undefined) [NADOLOL]
Not Active: IC50 [1] | IC50 [2] | IC50 [3] | IC50 [4] | Ki [4] | IC50 [5] | Ki [5] | IC50 [6] | Ki [6] | IC50 [7] | IC50 (Acetylcholinesterase)

C[C@]12CC[C@H]3[C@@H](CCC4=CC(=O)CC[C@@H]43)[C@@H]1CC[C@@H]2O [NANDROLONE]
Not Active: IC50 [1] | IC50 [2] | IC50 [3] | IC50 [4] | Ki [4] | IC50 [5] | Ki [5] | IC50 [6] | Ki [6] | IC50 [7] | IC50 (Acetylcholinesterase)

C[C@@H]1C/C=C/C=C/C=C/C=C/[C@H](O[C@@H]2O[C@H](C)[C@@H](O)[C@H](N)[C@@H]2O)C[C@@H]2O[C@](O)(C[C@@H](O)C[C@H]3O[C@@H]3/C=C/C(=O)O1)C[C@H](O)[C@H]2C(=O)O [NATAMYCIN]
Not Active: IC50 [1] | IC50 [2] | IC50 [3] | IC50 [4] | Ki [4] | IC50 [5] | Ki [5] | IC50 [6] | Ki [6] | IC50 [7] | IC50 (Acetylcholinesterase)

NC(=O)c1cccnc1 [NIACINAMIDE]
Not Active: IC50 [1] | IC50 [2] | IC50 [3] | IC50 [4] | Ki [4] | IC50 [5] | Ki [5] | IC50 [6] | Ki [6] | IC50 [7] | IC50 (Acetylcholinesterase)

CS(=O)(=O)Nc1ccc([N+](=O)[O-])cc1Oc1ccccc1 [NIMESULIDE]
Not Active: IC50 [1] | IC50 [2] | IC50 [3] | IC50 [4] | Ki [4] | IC50 [5] | Ki [5] | IC50 [6] | Ki [6] | IC50 [7] | IC50 (Acetylcholinesterase)

CN1C(=O)CN=C(c2ccccc2)c2cc([N+](=O)[O-])ccc21 [NIMETAZEPAM]
Not Active: IC50 [1] | IC50 [2] | IC50 [3] | IC50 [4] | Ki [4] | IC50 [5] | Ki [5] | IC50 [6] | Ki [6] | IC50 [7] | IC50 (Acetylcholinesterase)

COc1ccc2c(c1OC)C(=O)O[C@@H]2[C@H]1c2c(cc3c(c2OC)OCO3)CCN1C [NOSCAPINE]
Not Active: IC50 [1] | IC50 [2] | IC50 [3] | IC50 [4] | Ki [4] | IC50 [5] | Ki [5] | IC50 [6] | Ki [6] | IC50 [7] | IC50 (Acetylcholinesterase)

C[C@@H]1O[C@@H](O[C@H]2C[C@@H](O)[C@]3(CO)[C@H]4[C@H](O)C[C@]5(C)[C@@H](C6=CC(=O)OC6)CC[C@]5(O)[C@@H]4CC[C@]3(O)C2)[C@H](O)[C@H](O)[C@H]1O [OUABAIN]
Not Active: IC50 [1] | IC50 [2] | IC50 [3] | IC50 [4] | Ki [4] | IC50 [5] | Ki [5] | IC50 [6] | Ki [6] | IC50 [7] | IC50 (Acetylcholinesterase)

NC(=O)N1c2ccccc2CC(=O)c2ccccc21 [OXCARBAZEPINE]
Not Active: IC50 [1] | IC50 [2] | IC50 [3] | IC50 [4] | Ki [4] | IC50 [5] | Ki [5] | IC50 [6] | Ki [6] | IC50 [7] | IC50 (Acetylcholinesterase)

COc1ccnc(C[S+]([O-])c2nc3ccc(OC(F)F)cc3[nH]2)c1OC (centres undefined) [PANTOPRAZOLE]
Not Active: IC50 [1] | IC50 [2] | IC50 [3] | IC50 [4] | Ki [4] | IC50 [5] | Ki [5] | IC50 [6] | Ki [6] | IC50 [7] | IC50 (Acetylcholinesterase)
